Measured values published in PMC4153677, “Probing the Activity Modification Space of the Cysteine Peptidase Cathepsin K with Novel Allosteric Modifiers” (PLoS ONE, 2014).
Like-named read-outs stand apart in the source and are kept apart here.

Columns and labels:
[1] = target: T1, Recombinant human cathepsin K (Homo sapiens, UniProt P43235); experiment: Azocasein degradation assays; assay type: biochemical; conditions: for azocasein: fraction of residual enzyme activity: value of 1 equals the activity of unmodified enzyme, activity modification matrix
T1 construct: made in house
T1 sequence (P43235 115-329): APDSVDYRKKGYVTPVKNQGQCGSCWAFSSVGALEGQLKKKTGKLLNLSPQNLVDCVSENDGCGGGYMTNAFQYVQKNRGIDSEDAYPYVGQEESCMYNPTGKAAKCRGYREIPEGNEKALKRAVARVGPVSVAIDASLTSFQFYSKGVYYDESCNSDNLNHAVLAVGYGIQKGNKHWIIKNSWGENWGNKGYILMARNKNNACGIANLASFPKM
Excerpt: Figure 4 Effect of modifiers on the degradation of macromolecular substrates. (A) Effect of increasing concentrations of compounds 1 and 2 on the degradation of calf skin collagen. Molecular mass standards are given in kDa and positions of α, β and γ chains of intact collagen are marked by arrows. (B) Effect of modifiers on azocasein degradation. (C) Effect of glycosaminoglycans and clusterin on azocasein degradation. Two different concentrations of each glycosaminoglycan were used in the experiments (10 µg/ml and 200 µg/ml). Error bars in panels B and C represent the SEM of three experiments. All experiments were performed in 100 mM sodium acetate buffer pH 5.50 containing 1 mM EDTA and 5 mM DTT, as described in detail in the Materials and Methods section. Abbreviations: CPD – compound, CS – chondroitin sulfate, DS – dermatan sulfate, HP – heparin.
Azocasein (Sigma-Aldrich, USA) was dissolved in 100 mM sodium acetate buffer pH 5.50 containing 1 mM EDTA and 5 mM DTT at a concentration of 3 mg/ml. Samples were incubated with 0.1 µM cathepsin K for 30 min at 37°C in the presence of each compound. […] Reactions were stopped by addition of trichloroacetic acid (final concentration 5% v/v), centrifuged, clear supernatants mixed with 0.5 M NaOH and the concentrations of solubilized peptides determined by measuring the absorbance at 440 nm. All experiments were performed in triplicates and appropriate blanks were run to take into account the absorption of azocasein and compounds alone. IC 50 values were determined as described previously.

[2] = target: T1, Recombinant human cathepsin K; parameters: key: qualitative values of 1 and 0 were used to signify inhibition and lack thereof, respectively; qualitative values of 1 and 0 were used to signify inhibition and lack thereof, respectively; a value of -1 was used to describe the concentration-dependent roles of glycosaminoglycans; conditions: activity modification matrix; previously known modifiers, data from previous work; cited from earlier work
[3] = target: T1, Recombinant human cathepsin K; conditions: cited from earlier work; for stability: ln(sf), sf = ratio of half-lives in the presence and absence of modifier: 37 °C and pH 7.4, data from previous work
[4] = target: T1, Recombinant human cathepsin K; conditions: cited from earlier work; for Z-FRAMC: geometric mean of residual activities (vA): at 0.1×Km and 10×Km substrate, modifier 10×KA, previously known modifiers, data from previous work

## clusterin: extracellular chaperone, stabilizer and liberator of cathepsin K
[1]; glycosaminoglycans at 10 µg/ml and 200 µg/ml, clusterin
  Effect on azocasein degradation: marginal inhibitory effect
[1]
  azocasein: fraction of residual enzyme activity: 0.95
[2]
  collagen: qualitative value: 0
[3]
  stability: ln(sf), sf = ratio of half-lives in the presence and absence of modifier: 0.79
  Effect on stability of cathepsin K at physiological plasma pH 7.4: increase the stability
[4]
  Z-FRAMC: geometric mean of residual activities (vA): 1.00
  Effect on the hydrolysis of Z-FR↓AMC: no effect on enzymatic activity
[4]; listed as CLU
  Effect on the hydrolysis of Z-FR↓AMC: no modification

## chondroitin sulfate [reference compound]
[1]; lowest concentration, 10 µg/ml
  Effect on azocasein degradation: ineffective
[1]
  azocasein: fraction of residual enzyme activity: 0.90
[2]
  collagen: qualitative value: -1
[3]
  stability: ln(sf), sf = ratio of half-lives in the presence and absence of modifier: -0.24
[4]
  Z-FRAMC: geometric mean of residual activities (vA): 2.40

## dermatan sulfate [reference compound]
[1]
  azocasein: fraction of residual enzyme activity: 0.32
[2]
  collagen: qualitative value: -1
[3]
  stability: ln(sf), sf = ratio of half-lives in the presence and absence of modifier: -0.15
[4]
  Z-FRAMC: geometric mean of residual activities (vA): 3.18

## heparin
[1]
  azocasein: fraction of residual enzyme activity: 0.31
[2]
  collagen: qualitative value: -1
[3]
  stability: ln(sf), sf = ratio of half-lives in the presence and absence of modifier: 1.69
  Effect on stability of cathepsin K at physiological plasma pH 7.4: increase the stability
[4]
  Z-FRAMC: geometric mean of residual activities (vA): 1.55
